# Laboratory results: patent US8492404B2, “Bis-aryl amide compounds and methods of use” (Amgen Inc., priority 2005, dated 2013)
# Biological target: T1, Lck kinase enzyme (Homo sapiens, UniProt P06239)
# T1 construct: LCK KD GST (225-509); GST
# Test: LCK-Homogeneous Time Resolved Fluorescent (HTRF) Kinase Assay
# Type: biochemical
# Conditions: read-out: average IC50 value for the inhibition of the Lck kinase enzyme
# Method: LCK-Homogeneous Time Resolved Fluorescent (HTRF) Kinase Assay:
# The LCK HTRF assay begins with LCK in the presence of ATP phosphorylating the biotinylated peptide Gastrin. The reaction incubates for 90 min. To quench the assay detection reagents are added which both stop the reaction by diluting out the enzyme and chelating the metals due to the presence of EDTA. Once the detection reagents are added the assay incubates for 30 min to allow for equilibration of the detection reagents. […] Buffer conditions are as follows: 50 mM HEPES pH 7.5, 50 mM NaCl, 20 mM MgCl, 5 mM MnCl, 2 mM DTT, 0.05% BSA.
# The assay is quenched and stopped with 160 μL of detection reagent. Detection reagents are as follows: Buffer made of 50 mM Tris, pH 7.5, 100 mM NaCl, 3 mM EDTA, 0.05% BSA, 0.1% Tween20.
# The assay plate is read in either a Discovery or a RubyStar.
# T1 sequence (P06239 225-509): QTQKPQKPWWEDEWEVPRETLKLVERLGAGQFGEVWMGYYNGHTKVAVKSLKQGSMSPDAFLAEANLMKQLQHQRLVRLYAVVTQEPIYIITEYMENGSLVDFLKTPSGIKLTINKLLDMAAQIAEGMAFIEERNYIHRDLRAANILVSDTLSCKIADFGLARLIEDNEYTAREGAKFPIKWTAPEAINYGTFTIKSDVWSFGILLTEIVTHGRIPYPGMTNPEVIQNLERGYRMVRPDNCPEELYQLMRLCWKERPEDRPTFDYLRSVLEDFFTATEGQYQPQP
row,SMILES,IC50
1,"Cc1ccc(NC(=O)Nc2cccc(C(F)(F)F)c2)cc1C(=O)Nc1cncnc1 [Example 88, 1-(4-methyl-3-(pyrimidin-5-ylcarbamoyl)phenyl)-3-(3-(trifluoromethyl)phenyl)urea]",≤ 10 µM
2,"Cc1ccc(NC(=O)c2cc3ccccc3n2C)cc1C(=O)Nc1cnc(Nc2ccc(N3CCN(C)CC3)cc2)nc1 [Example 96, 1-methyl-N-(4-methyl-3-((2-(4-(4-methylpiperazin-1-yl)phenylamino)pyrimidin-5-yl)carbamoyl)phenyl)-1H-indole-2-carboxamide]",≤ 10 µM

# Biological target: T2, c-kit kinase enzyme (Homo sapiens, UniProt P10721)
# T2 construct: cKIT (6.25 μM) (catalytic domain, N-terminal GST tagged, unphosphorylated)
# Test: cKIT-Homogeneous Time Resolved Fluorescent (HTRF) Kinase Assay
# Type: biochemical
# Conditions: read-out: average IC50 value for the inhibition of the c-kit kinase enzyme
# Method: cKIT-Homogeneous Time Resolved Fluorescent (HTRF) Kinase Assay:
# The purpose of this assay is to measure the inhibition of cKIT enzyme activity (autophosphorylation and phosphorylation of substrate) by small molecule test compounds. The cKIT HTRF assay begins with cKIT-catalyzed phosphorylation of biotinylated peptide Her-2 (N-[…]-C) in the presence of ATP. The cKIT enzyme reaction is comprised of 1 μL of compound in 100% DMSO, 15 μL of 2× substrate mix (50 μM ATP and 2 μM biotinylated Her-2) and 15 μL of 2× cKIT (6.25 μM) (catalytic domain, N-terminal GST tagged, unphosphorylated) in 4 mM DTT all diluted in enzyme buffer (25 mM HEPES pH 7.5, 12.5 mM NaCl, 50 mM MgCl, 0.05% BSA). The reaction incubates for 90 min at room temperature. One-hundred and sixty microliters of detection mixture containing 0.47 μg/mL steptavidin allophycocyanin and 29.7 pM europylated anti-phosphotyrosine Ab (PT66, Perkin Elmer) in HTRF buffer (100 mM Hepes pH 7.5, 100 mM NaCl, 0.1% BSA, 0.05% Tween 20) is then added to stop the reaction by diluting out the enzyme as well as to enable quantitation of phosphorylated Her-2. After 3 h at room temperature, the detection reaction is read in a Packard Discovery™ (model BD1000) plate reader. The wells are excited with coherent […] light and the ratio of delayed ([…] post excitation) emissions at […] (native europium fluorescence) and 665 nm (europium fluorescence transferred to allophycocyanin—an index of substrate phosphorylation) is determined. The proportion of substrate phosphorylated in the kinase reaction in the presence of compound compared with that phosphorylated in the presence of DMSO vehicle alone (HI control) is calculated using the formula: % control (POC)=(cpd−average LO)/(average HI−average LO)*100. Data (consisting of POC and inhibitor concentration in μM) is fitted to a 4-parameter equation (y=A+((B−A)/(1+((x/C)^D))), where A is the minimum y (POC) value, B is the maximum y (POC), C is the x (cpd concentration) at the point of inflection and D is the slope factor) using a Levenburg-Marquardt non-linear regression algorithm.
# T2 sequence (P10721 589-937 limits assumed): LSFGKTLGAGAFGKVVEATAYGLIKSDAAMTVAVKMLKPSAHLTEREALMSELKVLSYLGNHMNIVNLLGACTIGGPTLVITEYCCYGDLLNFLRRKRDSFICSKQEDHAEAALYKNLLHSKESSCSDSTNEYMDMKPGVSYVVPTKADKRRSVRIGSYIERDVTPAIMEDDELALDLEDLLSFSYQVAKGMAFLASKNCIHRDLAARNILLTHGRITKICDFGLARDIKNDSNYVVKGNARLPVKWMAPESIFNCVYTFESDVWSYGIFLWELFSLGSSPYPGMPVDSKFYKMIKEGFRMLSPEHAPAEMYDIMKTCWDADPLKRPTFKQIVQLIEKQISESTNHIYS
row,SMILES,IC50
1,"Cc1ccc(NC(=O)c2cccc(C(F)(F)F)c2)cc1C(=O)Nc1cnc(N)nc1 [Example 1, N-(2-amino-5-pyrimidinyl)-2-methyl-5-(((3-(trifluoromethyl)phenyl)carbonyl)amino)benzamide]",≤ 10 µM
2,Cc1ccc(NC(=O)c2cccc(C(F)(F)F)c2)cc1C(=O)Nc1cnc(NCCN2CCOCC2)nc1 [Example 2],≤ 10 µM
3,"Cc1ccc(NC(=O)Nc2cccc(C(F)(F)F)c2)cc1C(=O)Nc1cncnc1 [Example 88, 1-(4-methyl-3-(pyrimidin-5-ylcarbamoyl)phenyl)-3-(3-(trifluoromethyl)phenyl)urea]",≤ 10 µM
4,"Cc1ccc(NC(=O)Nc2cccc(C(F)(F)F)c2)cc1C(=O)Nc1cnc(N)nc1 [Example 90, N-(2-amino-5-pyrimidinyl)-2-methyl-5-((((3-(trifluoromethyl)phenyl)amino)carbonyl)amino)benzamide]",≤ 10 µM
5,"Cc1ccc(NC(=O)c2cc3ccccc3n2C)cc1C(=O)Nc1cnc(Nc2ccc(N3CCN(C)CC3)cc2)nc1 [Example 96, 1-methyl-N-(4-methyl-3-((2-(4-(4-methylpiperazin-1-yl)phenylamino)pyrimidin-5-yl)carbamoyl)phenyl)-1H-indole-2-carboxamide]",≤ 10 µM
6,"Cc1ccc(NC(=O)c2ccc3ncsc3c2)cc1C(=O)Nc1cnc(N)nc1 [Example 109, N-(3-((2-aminopyrimidin-5-yl)carbamoyl)-4-methylphenyl)benzo[d] thiazole-6-carboxamide]",≤ 10 µM
7,"Cc1ccc(NC(=O)c2ccc3[nH]ccc3c2)cc1C(=O)Nc1cnc(N)nc1 [Example 110, N-(3-((2-aminopyrimidin-5-yl)carbamoyl)-4-methylphenyl)-1H-indole-5-carboxamide]",≤ 10 µM
8,"Cc1ccc(NC(=O)c2cc(I)ccc2O)cc1C(=O)Nc1cnc(Nc2ccc(N3CCN(C)CC3)cc2)nc1 [Example 112, 2-hydroxy-5-iodo-N-(4-methyl-3-(((2-((4-(4-methyl-1-piperazinyl)phenyl)amino)-5-pyrimidinyl)amino)carbonyl)phenyl) benzamide]",≤ 10 µM
9,"Cc1ccc(NC(=O)c2ccc(Cl)c(C(F)(F)F)c2)cc1C(=O)Nc1cnc(Nc2ccc(N3CCN(C)CC3)cc2)nc1 [Example 113, 4-chloro-N-(4-methyl-3-(((2-((4-(4-methyl-1-piperazinyl)phenyl)amino)-5-pyrimidinyl)amino)carbonyl)phenyl)-3-(trifluoromethyl) benzamide]",≤ 10 µM
10,Cc1ccc(NC(=O)c2csc(-c3cccs3)n2)cc1C(=O)Nc1cnc(Nc2ccc(N3CCN(C)CC3)cc2)nc1 [Example 141],≤ 10 µM
11,"Cc1ccc(C(=O)NCCC2CCCCC2)cc1C(=O)Nc1ccc(N)nc1 [Example 182, N~3~-(6-amino-3-pyridinyl)-N~1~-(2-cyclohexylethyl)-4-methyl-1,3-benzenedicarboxamide]",≤ 10 µM
12,"Cc1ccc(C(=O)NCCC2CCCC2)cc1C(=O)Nc1ccc(NC(=O)c2c[nH]cn2)nc1 [Example 206, N~1~-(2-cyclopentylethyl)-N~3~-(6-((1H-imidazol-4-ylcarbonyl)amino)-3-pyridinyl)-4-methyl-1,3-benzenedicarboxamide]",≤ 10 µM
